From patent US4206215A, “Antimicrobial bis-[4-(substituted-amino)-1-pyridinium]alkanes” (Sterling Drug Inc., priority 1977, dated 1980)
Where two headings read alike, the source gives them in different places.

Key:
Ps. aerug. MGH-2 = experiment: In vitro antibacterial activity, MIC (modified Autotiter method); format: cell-based, Pseudomonas aeruginosa; settings: Pseudomonas aeruginosa, 20 h, 18-20 hours at 37° C.; read-out: MIC Ps. aerug. MGH-2
In short: (§1)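 An automated twofold dilution method was used. Compound solution (1,000 mcg./ml., stock) is stepped down in sterile water, and inoculated double-strength semisynthetic glucose broth is dispensed to each cup, so final drug concentrations range 500 to 0.06 mcg./ml.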

E. coli AB1932-1 = experiment: as above; format: cell-based, Escherichia coli; settings: 18-20 hours at 37° C.; for MIC: Escherichia coli, AB19321, 20 h, read-out: MIC E. coli AB1932-1
In short: as §1

E. coli 100/B22 = experiment: as above; format: cell-based, Escherichia coli; settings: for MIC E. coli 100/B22: 18-20 hours at 37° C.; for MIC: Escherichia coli, 100/B22, 20 h, read-out: MIC E. coli 100/B22, 18-20 hours at 37° C.
In short: as §1

E. coli Vogel = experiment: as above; format: cell-based, Escherichia coli; settings: 18-20 hours at 37° C.; for MIC: Escherichia coli, 20 h, read-out: MIC E. coli Vogel
In short: as §1

E. Coli ATCC 8739 = experiment: Effect of serum on bacteriostatic activity (serial tube dilution test); format: cell-based, Escherichia coli; settings: for Fold Increase in MIC E. Coli ATCC 8739: 40% vs 0% horse serum; for MIC: Escherichia coli, ATCC8739
In short: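 Bacteriostatic potency against Escherichia coli ATCC 8739 was measured with the standard serial tube dilution test. Minimum inhibitory concentrations were determined in pairs, with the test medium either lacking serum or containing 40% horse serum heat-inactivated at 56° C. for 30 min. Serum impact was reported as the fold increase in MIC (mcg./ml.).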

[1] = tested on: young adult male Swiss-Webster strain albino mice; experiment: Acute oral toxicity (ALD50); format: in vivo
Protocol: (§2) The acute oral toxicity (ALD50) of several representative examples was determined as follows: Groups of 3 young adult male Swiss-Webster strain albino mice were fasted approximately 4 hours before medication and then medicated once orally by stomach tube.

[2] = Acute oral toxicity (ALD50); format: in vivo; settings: mouse, in vivo, po, mice, read-out: 7-Day ALD50
Protocol: as §2

T. menta. 9129 = experiment: In vitro antifungal activity, MIC (modified Autotiter method); format: cell-based, Trichophyton mentagrophytes; settings: 18-20 hours at 37° C.; for MIC: Trichophyton mentagrophytes, 20 h, read-out: MIC T. menta. 9129
In short: as §1

A. niger 16404 = experiment: as above; format: cell-based, Aspergillus niger; settings: 18-20 hours at 37° C.; for MIC: Aspergillus niger, 16404, 20 h, read-out: MIC A. niger 16404
In short: as §1

S. Aureus ATCC 6538 = experiment: Effect of serum on bacteriostatic activity (serial tube dilution test); format: cell-based, Staphyloccocus aureus; settings: for Fold Increase in MIC S. Aureus ATCC 6538: 40% vs 0% horse serum; for MIC: Staphylococcus aureus, ATCC6538
[3] = 40% heat inactivated horse serum, read-out: MIC E. Coli ATCC 8739 40% Serum
[4] = read-out: MIC E. Coli ATCC 8739 0% Serum
[5] = 125 mg/kg oral, aqueous solution
[6] = 125 mg/kg oral, suspension in 1% G.T.
[7] = 250 mg/kg oral, aqueous solution
[8] = 250 mg/kg oral, suspension in 1% G.T.
[9] = 500 mg/kg oral, aqueous solution
[10] = 500 mg/kg oral, suspension in 1% G.T.
[11] = 1000 mg/kg oral, suspension in 1% G.T.
[12] = suspension in 1% gum tragacanth
[13] = 40% heat inactivated horse serum, read-out: MIC S. Aureus ATCC 6538 40% Serum
[14] = read-out: MIC S. Aureus ATCC 6538 0% Serum

| Structure (SMILES) | MIC (Ps. aerug. MGH-2) [µg/mL] | Fold Increase in MIC E. Coli ATCC 8739 (E. Coli ATCC 8739) [fold] | MIC (E. Coli ATCC 8739; [3]) [µg/mL] | MIC (E. Coli ATCC 8739; [4]) [µg/mL] | Mortality 7 Days [1, 6] | Mortality 24 Hrs [1, 6] | Mortality 7 Days [1, 8] | Mortality 24 Hrs [1, 8] | Mortality 7 Days [1, 10] | Mortality 24 Hrs [1, 10] | Mortality 7 Days [1, 11] | Mortality 24 Hrs [1, 11] | LD50 at 168 h [2, 12] [mg/kg] | Fold Increase in MIC S. Aureus ATCC 6538 (S. Aureus ATCC 6538) [fold] | MIC (S. Aureus ATCC 6538; [13]) [µg/mL] | MIC (S. Aureus ATCC 6538; [14]) [µg/mL] | MIC (E. coli 100/B22) [µg/mL] | MIC (E. coli Vogel) [µg/mL] | MIC (T. menta. 9129) [µg/mL] | MIC (E. coli AB1932-1) [µg/mL] | other results |
| --- | --- | --- | --- | --- | --- | --- | --- | --- | --- | --- | --- | --- | --- | --- | --- | --- | --- | --- | --- | --- | --- |
| CCCCCCCNc1cc[n+](CCCCCCCCCCCC[n+]2ccc(NCCCCCCC)cc2)cc1 [Example 3, 1,12-bis-[4-(heptylamino)-1-pyridinium]dodecane dibromide] | 6.25 | 32 | 25 | 0.78 | 0/3 | 0/3 | 0/3 | 0/3 | 1/3 | 0/3 | 1/3 | 1/3 | 1000 | 8 | 3.12 | 0.39 |  |  |  |  | MIC E. coli AB1932-1 (E. coli AB1932-1): 6.25 µg/mL; MIC E. coli 100/B22 (E. coli 100/B22): 3.13 µg/mL; MIC E. coli Vogel (E. coli Vogel): 1.56 µg/mL; Mortality 7 Days [1, 5]: 0/3; Mortality 24 Hrs [1, 5]: 0/3; Mortality 7 Days [1, 7]: 1/3; Mortality 24 Hrs [1, 7]: 1/3; Mortality 7 Days [1, 9]: 3/3; Mortality 24 Hrs [1, 9]: 2/3; LD50 at 168 h ([2]; aqueous solution): 315 mg/kg; MIC T. menta. 9129 (T. menta. 9129): 1.56 µg/mL; MIC A. niger 16404 (A. niger 16404): 3.13 µg/mL |
| CCCCC(CC)CNc1cc[n+](CCCCCCCCCC[n+]2ccc(NCC(CC)CCCC)cc2)cc1 (stereo not shown) [Example 58, 1,10-bis-[4-(2-ethylhexylamino)-1-pyridinium]decane dibromide] | 48.4 | 32 | 15.6 | 0.5 | 0/3 | 0/3 | 0/3 | 0/3 | 0/3 | 0/3 | 0/3 | 0/3 | > 1000 | 16 | 3.9 | 0.25 | 0.76 | 1.5 | 0.76 |  | MIC E. coli AB1932-1 (E. coli AB1932-1): 0.37 µg/mL; MIC A. niger 16404 (A. niger 16404): 6.0 µg/mL |
| CCCCCCNc1cc[n+](CCCCCCCCCCCCCC[n+]2ccc(NCCCCCC)cc2)cc1 [Example 5C, 1,14-bis-[4-(hexylamino)-1-pyridinium]tetradecane dibromide] | 6 | 32 | 25 | 0.78 | 0/3 | 0/3 | 0/3 | 0/3 | 0/3 | 0/3 | 1/3 | 1/3 | > 1000 | 32 | 3.12 | 0.1 | 0.76 | 0.76 | 0.76 | 0.76 | MIC (A. niger 16404): 3 µg/mL |
| CCCCCCCCNc1cc[n+](CCCCCCCC[n+]2ccc(NCCCCCCCC)cc2)cc1 [Example 11, 1,8-bis-[4-(octylamino)-1-pyridinium]octane dibromide] | 15.6 | 64 | 31.2 | 0.5 | 0/3 | 0/3 | 0/3 | 0/3 | 1/3 | 0/3 | 0/3 | 0/3 | > 1000 | 16 | 7.8 | 0.5 |  | 1 | 0.5 | 1 | MIC E. coli 100/B22 (E. coli 100/B22): 1.95 µg/mL; MIC (A. niger 16404): 3.9 µg/mL |
| CCCCCCCNc1cc[n+](CCCCCCCCC[n+]2ccc(NCCCCCCC)cc2)cc1 [Example 24, 1,9-bis-[4-(heptylamino)-1-pyridinium]nonane dibromide] | 62.5 | 32 | 7.8 | 0.25 | 0/3 | 0/3 | 0/3 | 0/3 | 1/3 | 0/3 | 0/3 | 0/3 | > 1000 | 16 | 1.95 | 0.125 | 1.95 | 1 | 0.5 | 1 | MIC (A. niger 16404): 3.9 µg/mL |
